# Article PMC4032265 (PLoS ONE, 2014)
# Where two headings read alike, the source gives them in different places.
# What was measured:
# D2 dopaminergic receptor = D2 dopaminergic receptor (Homo sapiens, UniProt P14416); assay: PDSP radioligand binding, D2; details: read-out: % inhibition at 10 µM
# [1] = molecular target: 5HT6 serotonergic receptor (Homo sapiens, UniProt P50406); assay: PDSP radioligand binding, 5HT6; details: read-out: % inhibition at 10 µM
# σ1 receptor = σ1 receptor (Cavia porcellus, UniProt Q60492); assay: PDSP radioligand binding, σ1; details: read-out: % inhibition at 10 µM
# [2] = molecular target: 5HT1B serotonergic receptor (Homo sapiens, UniProt P28222); assay: PDSP radioligand binding, 5HT1B; details: read-out: % inhibition at 10 µM
# [3] = molecular target: T1, M4 muscarinic acetylcholine receptor (Homo sapiens, UniProt P08173); assay: PDSP radioligand binding, M4; details: read-out: % inhibition at 10 µM
# T1 sequence (P08173 1-479): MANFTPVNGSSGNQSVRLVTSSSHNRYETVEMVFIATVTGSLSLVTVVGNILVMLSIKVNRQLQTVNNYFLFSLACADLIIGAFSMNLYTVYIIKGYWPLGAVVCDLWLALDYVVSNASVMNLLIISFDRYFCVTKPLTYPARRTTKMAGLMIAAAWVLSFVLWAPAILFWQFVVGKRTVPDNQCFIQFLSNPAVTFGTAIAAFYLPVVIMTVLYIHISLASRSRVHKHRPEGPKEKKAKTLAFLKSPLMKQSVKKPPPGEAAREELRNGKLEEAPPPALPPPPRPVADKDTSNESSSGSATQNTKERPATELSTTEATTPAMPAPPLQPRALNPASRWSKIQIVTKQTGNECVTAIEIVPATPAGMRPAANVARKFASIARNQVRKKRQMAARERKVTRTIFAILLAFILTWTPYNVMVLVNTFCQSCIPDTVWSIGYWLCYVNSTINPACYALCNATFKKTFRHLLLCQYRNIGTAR
# [4] = molecular target: T2, 5HT1A serotonergic receptor (Homo sapiens, UniProt P08908); assay: PDSP radioligand binding, 5HT1A; details: for inhibition at 10 µM: read-out: % inhibition at 10 µM
# T2 sequence (P08908 1-422): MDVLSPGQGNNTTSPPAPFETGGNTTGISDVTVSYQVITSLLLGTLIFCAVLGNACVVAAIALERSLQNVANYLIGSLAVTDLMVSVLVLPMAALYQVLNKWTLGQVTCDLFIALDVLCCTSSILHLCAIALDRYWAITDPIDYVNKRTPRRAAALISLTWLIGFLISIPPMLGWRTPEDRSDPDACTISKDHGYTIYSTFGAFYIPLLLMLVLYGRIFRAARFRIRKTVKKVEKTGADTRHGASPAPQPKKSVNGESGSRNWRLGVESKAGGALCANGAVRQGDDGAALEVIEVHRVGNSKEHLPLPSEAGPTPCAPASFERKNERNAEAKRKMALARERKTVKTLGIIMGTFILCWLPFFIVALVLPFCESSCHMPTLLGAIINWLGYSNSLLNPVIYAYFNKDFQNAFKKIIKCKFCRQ
# β2 adrenergic receptor = β2 adrenergic receptor (Homo sapiens, UniProt P07550); assay: PDSP radioligand binding, β2; details: read-out: % inhibition at 10 µM
# α2A adrenergic receptor = molecular target: T3, α2A adrenergic receptor (Homo sapiens, UniProt P08913); assay: PDSP radioligand binding, α2A; details: for Ki: full concentration-response curves, n = 3-6 unless noted; for inhibition at 10 µM: read-out: % inhibition at 10 µM
# T3 sequence (P08913 1-465): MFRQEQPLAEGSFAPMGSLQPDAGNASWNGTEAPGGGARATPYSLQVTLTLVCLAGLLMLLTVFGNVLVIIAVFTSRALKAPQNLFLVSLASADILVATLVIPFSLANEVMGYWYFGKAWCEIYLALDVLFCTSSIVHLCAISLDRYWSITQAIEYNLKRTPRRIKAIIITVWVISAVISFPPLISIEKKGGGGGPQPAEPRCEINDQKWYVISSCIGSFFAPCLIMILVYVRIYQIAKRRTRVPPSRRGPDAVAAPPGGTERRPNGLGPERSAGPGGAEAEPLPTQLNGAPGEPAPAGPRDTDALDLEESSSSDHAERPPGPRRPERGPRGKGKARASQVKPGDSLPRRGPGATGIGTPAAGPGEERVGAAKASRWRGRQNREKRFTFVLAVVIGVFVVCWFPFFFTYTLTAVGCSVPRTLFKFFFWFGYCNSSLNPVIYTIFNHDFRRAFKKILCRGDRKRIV
# α2B adrenergic receptor = molecular target: T4, α2B adrenergic receptor (Homo sapiens, UniProt P18089); assay: PDSP radioligand binding, α2B; details: for Ki: full concentration-response curves, n = 3-6 unless noted; for inhibition at 10 µM: read-out: % inhibition at 10 µM
# T4 sequence (P18089 1-450): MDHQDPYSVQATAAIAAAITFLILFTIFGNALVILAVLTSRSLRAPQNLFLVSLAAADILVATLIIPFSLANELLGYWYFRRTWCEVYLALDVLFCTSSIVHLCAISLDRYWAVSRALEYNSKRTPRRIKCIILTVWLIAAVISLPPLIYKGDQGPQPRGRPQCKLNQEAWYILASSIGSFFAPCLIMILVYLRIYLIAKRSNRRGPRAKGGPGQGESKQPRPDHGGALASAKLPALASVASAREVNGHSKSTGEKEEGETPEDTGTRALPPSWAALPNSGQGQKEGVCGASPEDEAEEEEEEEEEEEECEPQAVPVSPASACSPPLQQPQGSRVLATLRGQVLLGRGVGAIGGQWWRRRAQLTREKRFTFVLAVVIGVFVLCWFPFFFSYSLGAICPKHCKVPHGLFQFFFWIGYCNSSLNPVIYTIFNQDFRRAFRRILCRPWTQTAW
# [5] = molecular target: 5HT1D serotonergic receptor (Homo sapiens, UniProt P28221); assay: PDSP radioligand binding, 5HT1D; details: read-out: % inhibition at 10 µM
# hERG potassium channel = hERG potassium channel (Homo sapiens, UniProt Q12809); assay: PDSP hERG functional assay; format: cell-based; details: for inhibition at 10 µM: human, single point 10 µM; for Ki: not binding
# [6] = molecular target: T5, M2 muscarinic acetylcholine receptor (Homo sapiens, UniProt P08172); assay: PDSP radioligand binding, M2; details: read-out: % inhibition at 10 µM
# T5 sequence (P08172 1-466): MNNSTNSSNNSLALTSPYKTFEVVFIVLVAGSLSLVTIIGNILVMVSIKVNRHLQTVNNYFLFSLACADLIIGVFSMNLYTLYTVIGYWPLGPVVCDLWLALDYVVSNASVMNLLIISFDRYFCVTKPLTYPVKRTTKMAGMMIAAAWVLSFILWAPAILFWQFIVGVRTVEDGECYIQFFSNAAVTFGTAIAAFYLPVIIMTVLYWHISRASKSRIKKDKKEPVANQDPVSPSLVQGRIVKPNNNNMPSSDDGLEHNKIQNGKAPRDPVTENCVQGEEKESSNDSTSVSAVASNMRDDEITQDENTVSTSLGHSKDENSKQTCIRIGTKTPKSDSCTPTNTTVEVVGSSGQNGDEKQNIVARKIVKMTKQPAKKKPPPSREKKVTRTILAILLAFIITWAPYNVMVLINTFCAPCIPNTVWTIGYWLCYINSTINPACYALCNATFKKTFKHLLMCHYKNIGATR
# Sequence of 5HT1D serotonergic receptor (P28221 whole entry): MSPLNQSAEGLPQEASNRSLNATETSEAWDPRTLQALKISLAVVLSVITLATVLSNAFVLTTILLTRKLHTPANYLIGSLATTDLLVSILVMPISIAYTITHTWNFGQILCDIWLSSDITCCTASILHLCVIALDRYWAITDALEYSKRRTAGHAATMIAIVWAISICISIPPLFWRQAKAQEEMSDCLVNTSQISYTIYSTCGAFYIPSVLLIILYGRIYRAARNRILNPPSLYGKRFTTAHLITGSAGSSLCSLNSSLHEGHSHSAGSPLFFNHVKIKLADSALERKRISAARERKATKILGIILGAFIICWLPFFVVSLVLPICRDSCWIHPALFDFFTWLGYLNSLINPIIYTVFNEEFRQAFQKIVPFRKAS
# Sequence of hERG potassium channel (Q12809 whole entry): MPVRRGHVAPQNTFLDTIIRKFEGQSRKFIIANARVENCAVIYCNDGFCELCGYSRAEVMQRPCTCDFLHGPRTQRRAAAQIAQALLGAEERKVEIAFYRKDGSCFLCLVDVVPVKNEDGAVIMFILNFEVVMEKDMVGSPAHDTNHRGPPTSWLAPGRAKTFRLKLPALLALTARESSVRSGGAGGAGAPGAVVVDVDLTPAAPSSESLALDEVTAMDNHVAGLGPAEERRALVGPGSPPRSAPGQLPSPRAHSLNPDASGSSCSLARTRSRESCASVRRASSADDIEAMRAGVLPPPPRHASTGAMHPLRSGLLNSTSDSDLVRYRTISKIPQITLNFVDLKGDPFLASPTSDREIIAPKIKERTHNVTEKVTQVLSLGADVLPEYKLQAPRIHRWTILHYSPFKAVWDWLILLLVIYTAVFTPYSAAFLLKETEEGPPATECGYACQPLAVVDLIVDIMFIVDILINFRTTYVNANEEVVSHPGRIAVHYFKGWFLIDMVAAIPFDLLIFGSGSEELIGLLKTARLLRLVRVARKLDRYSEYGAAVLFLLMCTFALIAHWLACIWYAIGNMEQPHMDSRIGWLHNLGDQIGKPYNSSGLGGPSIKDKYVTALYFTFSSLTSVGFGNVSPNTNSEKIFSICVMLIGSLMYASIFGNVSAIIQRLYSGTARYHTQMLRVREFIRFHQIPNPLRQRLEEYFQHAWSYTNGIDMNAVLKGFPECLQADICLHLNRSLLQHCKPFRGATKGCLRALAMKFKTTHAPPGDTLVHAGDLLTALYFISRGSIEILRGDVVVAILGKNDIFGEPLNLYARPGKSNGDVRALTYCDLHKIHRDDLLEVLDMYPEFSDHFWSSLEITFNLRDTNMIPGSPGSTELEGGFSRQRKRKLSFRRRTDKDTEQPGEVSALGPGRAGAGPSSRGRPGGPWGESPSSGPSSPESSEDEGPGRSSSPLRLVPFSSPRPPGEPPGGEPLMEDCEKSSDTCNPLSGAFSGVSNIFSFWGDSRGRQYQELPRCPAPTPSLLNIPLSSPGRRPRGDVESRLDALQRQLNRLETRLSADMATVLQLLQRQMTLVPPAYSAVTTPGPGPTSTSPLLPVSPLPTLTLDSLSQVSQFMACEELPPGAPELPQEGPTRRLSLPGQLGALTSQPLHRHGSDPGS
# Sequence of D2 dopaminergic receptor (P14416 whole entry): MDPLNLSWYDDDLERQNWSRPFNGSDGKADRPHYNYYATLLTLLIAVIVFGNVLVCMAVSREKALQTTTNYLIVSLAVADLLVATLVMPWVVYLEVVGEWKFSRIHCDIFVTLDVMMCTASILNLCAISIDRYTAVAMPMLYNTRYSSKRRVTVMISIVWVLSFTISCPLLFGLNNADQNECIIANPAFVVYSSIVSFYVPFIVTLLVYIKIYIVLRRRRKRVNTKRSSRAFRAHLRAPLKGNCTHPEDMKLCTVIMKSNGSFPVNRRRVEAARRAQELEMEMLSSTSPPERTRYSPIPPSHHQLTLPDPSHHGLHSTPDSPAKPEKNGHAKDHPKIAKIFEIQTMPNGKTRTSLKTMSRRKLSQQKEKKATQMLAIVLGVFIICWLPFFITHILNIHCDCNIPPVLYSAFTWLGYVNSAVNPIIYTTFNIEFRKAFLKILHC
# Sequence of σ1 receptor (Q60492 whole entry): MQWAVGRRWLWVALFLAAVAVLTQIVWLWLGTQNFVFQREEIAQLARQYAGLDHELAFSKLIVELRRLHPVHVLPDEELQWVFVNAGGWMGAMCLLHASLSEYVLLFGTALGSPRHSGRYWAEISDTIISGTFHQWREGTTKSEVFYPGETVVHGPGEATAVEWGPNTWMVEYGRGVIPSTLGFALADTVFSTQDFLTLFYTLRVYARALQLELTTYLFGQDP
# Sequence of 5HT6 serotonergic receptor (P50406 whole entry): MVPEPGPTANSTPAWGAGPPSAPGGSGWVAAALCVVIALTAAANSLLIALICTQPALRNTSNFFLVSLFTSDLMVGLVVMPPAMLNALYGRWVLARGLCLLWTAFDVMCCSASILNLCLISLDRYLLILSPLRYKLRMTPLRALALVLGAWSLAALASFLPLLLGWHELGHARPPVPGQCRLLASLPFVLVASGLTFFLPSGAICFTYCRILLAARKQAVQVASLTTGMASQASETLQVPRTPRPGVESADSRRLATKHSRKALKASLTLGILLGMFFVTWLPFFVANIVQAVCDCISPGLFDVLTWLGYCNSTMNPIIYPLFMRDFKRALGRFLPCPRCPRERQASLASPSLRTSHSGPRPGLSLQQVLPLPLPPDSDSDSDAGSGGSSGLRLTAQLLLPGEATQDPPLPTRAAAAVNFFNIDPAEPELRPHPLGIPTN
# Sequence of 5HT1B serotonergic receptor (P28222 whole entry): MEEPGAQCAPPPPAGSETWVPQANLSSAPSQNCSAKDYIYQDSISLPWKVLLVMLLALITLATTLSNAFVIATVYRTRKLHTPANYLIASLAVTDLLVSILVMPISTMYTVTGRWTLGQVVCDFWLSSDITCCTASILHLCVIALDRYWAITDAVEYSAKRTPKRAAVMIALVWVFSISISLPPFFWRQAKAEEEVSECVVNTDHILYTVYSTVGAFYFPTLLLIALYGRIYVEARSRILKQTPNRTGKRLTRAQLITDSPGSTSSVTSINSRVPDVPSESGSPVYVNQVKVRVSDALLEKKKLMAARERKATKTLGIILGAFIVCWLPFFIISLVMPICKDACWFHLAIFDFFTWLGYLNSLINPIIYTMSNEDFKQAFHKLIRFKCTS
# Sequence of β2 adrenergic receptor (P07550 whole entry): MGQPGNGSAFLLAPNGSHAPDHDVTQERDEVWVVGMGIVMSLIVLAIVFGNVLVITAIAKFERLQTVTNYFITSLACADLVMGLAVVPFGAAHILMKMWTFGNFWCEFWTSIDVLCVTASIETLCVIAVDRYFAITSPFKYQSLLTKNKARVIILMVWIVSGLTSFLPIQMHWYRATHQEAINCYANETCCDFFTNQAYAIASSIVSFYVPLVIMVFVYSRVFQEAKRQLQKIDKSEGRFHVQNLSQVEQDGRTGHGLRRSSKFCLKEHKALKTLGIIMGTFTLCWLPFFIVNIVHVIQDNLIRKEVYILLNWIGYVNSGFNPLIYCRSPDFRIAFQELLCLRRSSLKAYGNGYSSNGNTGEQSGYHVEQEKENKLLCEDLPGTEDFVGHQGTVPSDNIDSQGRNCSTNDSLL
Structure (SMILES),Ki (α2A adrenergic receptor) [µM],Ki (α2B adrenergic receptor) [µM],inhibition at 10 µM (hERG potassium channel) [%],Ki (hERG potassium channel) [µM],inhibition at 10 µM (D2 dopaminergic receptor; single concentration 10 µM) [%],inhibition at 10 µM ([1]; single concentration 10 µM) [%],inhibition at 10 µM (σ1 receptor; single concentration 10 µM) [%],inhibition at 10 µM ([2]; single concentration 10 µM) [%],inhibition at 10 µM ([3]; single concentration 10 µM) [%],inhibition at 10 µM ([4]; single concentration 10 µM) [%],inhibition at 10 µM (β2 adrenergic receptor; single concentration 10 µM) [%],inhibition at 10 µM (α2A adrenergic receptor; single concentration 10 µM) [%],inhibition at 10 µM (α2B adrenergic receptor; single concentration 10 µM) [%],inhibition at 10 µM ([5]; single concentration 10 µM) [%],inhibition at 10 µM ([6]; single concentration 10 µM) [%],also measured
CNC(=O)[C@@]12C[C@@H]1[C@@H](n1cnc3c(NCc4cccc(Cl)c4)nc(C#Cc4ccc(F)c(F)c4)nc31)[C@H](O)[C@@H]2O [Compound 1],4.77 ± 1.43,2.86 ± 1.11,43 ± 1.9,12.2,,,,,,,,,,,,inhibition at 10 µM (D2 dopaminergic receptor): 0%; inhibition at 10 µM [1]: 0%; inhibition at 10 µM (σ1 receptor): 0%; inhibition at 10 µM [2]: 0%; inhibition at 10 µM [3]: 20%; Ki [4]: 7.62 µM; inhibition at 10 µM [4]: 26%; inhibition at 10 µM (β2 adrenergic receptor): 0%; inhibition at 10 µM (α2A adrenergic receptor): 19%; inhibition at 10 µM (α2B adrenergic receptor): 49%; inhibition at 10 µM [5]: 0%; inhibition at 10 µM [6]: 22%
CNC(=O)[C@@]12C[C@@H]1[C@@H](n1cnc3c(NCc4cccc(Cl)c4)nc(C#Cc4ccc(F)cc4)nc31)[C@H](O)[C@@H]2O [Compound 2],,,5.8 ± 11.9,39.5,0,36,2,0,8,5,0,6,12,21,0,
CNC(=O)[C@@]12C[C@@H]1[C@@H](n1cnc3c(NCc4cccc(Cl)c4)nc(C#Cc4ccccc4Cl)nc31)[C@H](O)[C@@H]2O [Compound 3],,6.48 ± 2.94,10.3 ± 4.9,39.2,0,59,33,0,8,6,0,22,8,10,0,
CNC(=O)[C@@]12C[C@@H]1[C@@H](n1cnc3c(NCc4cccc(Cl)c4)nc(Cl)nc31)[C@H](O)[C@@H]2O [Compound 4],,,2,,16,9,2,23,30,29,2,26,21,31,14,
O[C@@H]1[C@H](O)[C@@H]2C[C@@H]2[C@H]1n1cnc2c(NCc3cccc(Cl)c3)nc(C#Cc3ccc(F)c(F)c3)nc21 [Compound 6],,5.97 ± 1.53,,,9,0,16,13,32,9,0,14,0,12,7,
O[C@@H]1[C@H](O)[C@@H]2C[C@@H]2[C@H]1n1cnc2c(NCc3cccc(Cl)c3)ncnc21 [Compound 7],,6.34 ± 1.47,,,6,39,29,2,4,28,53,26,42,4,15,
Fc1ccc(C#Cc2nc(NCc3cccc(Cl)c3)c3nc[nH]c3n2)cc1F [Compound 8],2.19 ± 0.27,1.09 ± 0.14,,,0,0,0,32,4,11,0,34,63,26,6,
Clc1cccc(CNc2nc(Cl)nc3[nH]cnc23)c1 [Compound 9],3 ± 0.51,0.061 ± 0.02,,,0,31,0,6,0,12,0,58,95,14,9,
